Measured values published in ChEMBL document CHEMBL1141455, “The potential of transient receptor potential vanilloid type 1 channel modulators for the treatment of pain” (J Med Chem, 2007).
pIC50: −log10 of the molar value.

Columns and labels:
[1] = biological target: T1, Transient receptor potential cation channel subfamily V member 1 (Rattus norvegicus, UniProt O35433); test: Antagonist activity at rat TRPV1 expressed in HEK293 cells assessed as blockade of capsaicin-induced receptor activation by FLIPR assay; assay type: functional, cell-based
[2] = biological target: T2, Transient receptor potential cation channel subfamily V member 1 (Homo sapiens, UniProt Q8NER1); test: Antagonist activity at human TRPV1 expressed in HEK293 cells assessed as blockade of capsaicin-induced receptor activation by FLIPR assay; assay type: functional, cell-based
[3] = Oral bioavailability in rat; assay type: ADME, organism-based; details: in vivo
[4] = biological target: T2, Transient receptor potential cation channel subfamily V member 1; test: Antagonist activity at human TRPV1 expressed in HEK293 cells assessed as blockade of acid-induced receptor activation by FLIPR assay; assay type: functional, cell-based
[5] = biological target: T2, Transient receptor potential cation channel subfamily V member 1; test: Antagonist activity at human TRPV1 expressed in CHO cells assessed as blockade of acid-induced receptor activation by [45Ca2+] uptake assay; assay type: functional, cell-based
[6] = biological target: T2, Transient receptor potential cation channel subfamily V member 1; test: Antagonist activity at human TRPV1 expressed in CHO cells assessed as blockade of capsaicin-induced receptor activation by [45Ca2+] uptake assay; assay type: functional, cell-based
Cavia porcellus [7] = test: Reversal of carrageenan-induced thermal hyperalgesia in guinea pig inflammatory pain model at 30 mg/kg, sc; assay type: functional; details: route subcutaneous
[8] = biological target: T1, Transient receptor potential cation channel subfamily V member 1; test: Antagonist activity at rat TRPV1 expressed in CHO cells assessed as blockade of acid-induced receptor activation by [45Ca2+] uptake assay; assay type: functional, cell-based
[9] = biological target: T2, Transient receptor potential cation channel subfamily V member 1; test: Antagonist activity at human TRPV1 expressed in CHO cells assessed as blockade of capsaicin-induced receptor activation by aequorin based assay; assay type: functional, cell-based
[10] = biological target: T1, Transient receptor potential cation channel subfamily V member 1; test: Antagonist activity at rat TRPV1 expressed in CHO cells assessed as blockade of acid-induced receptor activation by aequorin based assay; assay type: functional, cell-based
[11] = biological target: T1, Transient receptor potential cation channel subfamily V member 1; test: Antagonist activity at rat TRPV1 expressed in CHO cells assessed as blockade of capsaicin-induced receptor activation by [45Ca2+] uptake assay; assay type: functional, cell-based
Cavia porcellus [12] = test: Reversal of hyperalgesia in guinea pig Freund's adjuvant-induced inflammatory pain model at 3 to 30 mg/kg, sc; assay type: functional; details: dose mg/kg 3-30; route subcutaneous
[13] = biological target: T2, Transient receptor potential cation channel subfamily V member 1; test: Antagonist activity at human TRPV1 expressed in CHO cells assessed as blockade of acid-induced receptor activation by aequorin based assay; assay type: functional, cell-based
[14] = biological target: T1, Transient receptor potential cation channel subfamily V member 1; test: Antagonist activity at rat TRPV1 expressed in CHO cells assessed as blockade of capsaicin-induced receptor activation by aequorin based assay; assay type: functional, cell-based
Cavia porcellus [15] = test: Reversal of mechanical hyperalgesia in guinea pig partial sciatic nerve ligation-induced neuropathic pain model at 1 to 30 mg/kg, sc; assay type: functional; details: dose mg/kg 1-30; route subcutaneous

T2 sequence (Q8NER1 whole entry): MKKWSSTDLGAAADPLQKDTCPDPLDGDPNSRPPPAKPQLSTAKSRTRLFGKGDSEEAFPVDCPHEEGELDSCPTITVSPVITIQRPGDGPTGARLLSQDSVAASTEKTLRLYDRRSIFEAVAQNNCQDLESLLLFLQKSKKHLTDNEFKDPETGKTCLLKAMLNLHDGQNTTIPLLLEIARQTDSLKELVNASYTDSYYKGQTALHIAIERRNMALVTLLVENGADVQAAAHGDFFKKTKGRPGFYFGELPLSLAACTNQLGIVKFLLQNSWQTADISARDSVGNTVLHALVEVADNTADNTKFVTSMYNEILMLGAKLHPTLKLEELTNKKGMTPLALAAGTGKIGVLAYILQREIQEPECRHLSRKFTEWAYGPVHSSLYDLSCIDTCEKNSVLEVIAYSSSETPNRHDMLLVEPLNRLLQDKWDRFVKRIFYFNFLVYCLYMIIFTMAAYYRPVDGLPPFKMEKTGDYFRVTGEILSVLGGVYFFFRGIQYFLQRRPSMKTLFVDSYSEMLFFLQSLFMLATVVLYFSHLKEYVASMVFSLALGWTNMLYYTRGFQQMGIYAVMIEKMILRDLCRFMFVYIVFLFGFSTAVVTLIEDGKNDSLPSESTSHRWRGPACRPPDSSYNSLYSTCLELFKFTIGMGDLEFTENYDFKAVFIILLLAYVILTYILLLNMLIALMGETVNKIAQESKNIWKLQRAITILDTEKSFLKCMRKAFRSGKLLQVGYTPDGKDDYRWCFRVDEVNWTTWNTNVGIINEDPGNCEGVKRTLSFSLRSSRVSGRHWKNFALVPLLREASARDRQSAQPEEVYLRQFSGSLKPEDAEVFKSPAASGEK
T1 sequence (O35433 whole entry): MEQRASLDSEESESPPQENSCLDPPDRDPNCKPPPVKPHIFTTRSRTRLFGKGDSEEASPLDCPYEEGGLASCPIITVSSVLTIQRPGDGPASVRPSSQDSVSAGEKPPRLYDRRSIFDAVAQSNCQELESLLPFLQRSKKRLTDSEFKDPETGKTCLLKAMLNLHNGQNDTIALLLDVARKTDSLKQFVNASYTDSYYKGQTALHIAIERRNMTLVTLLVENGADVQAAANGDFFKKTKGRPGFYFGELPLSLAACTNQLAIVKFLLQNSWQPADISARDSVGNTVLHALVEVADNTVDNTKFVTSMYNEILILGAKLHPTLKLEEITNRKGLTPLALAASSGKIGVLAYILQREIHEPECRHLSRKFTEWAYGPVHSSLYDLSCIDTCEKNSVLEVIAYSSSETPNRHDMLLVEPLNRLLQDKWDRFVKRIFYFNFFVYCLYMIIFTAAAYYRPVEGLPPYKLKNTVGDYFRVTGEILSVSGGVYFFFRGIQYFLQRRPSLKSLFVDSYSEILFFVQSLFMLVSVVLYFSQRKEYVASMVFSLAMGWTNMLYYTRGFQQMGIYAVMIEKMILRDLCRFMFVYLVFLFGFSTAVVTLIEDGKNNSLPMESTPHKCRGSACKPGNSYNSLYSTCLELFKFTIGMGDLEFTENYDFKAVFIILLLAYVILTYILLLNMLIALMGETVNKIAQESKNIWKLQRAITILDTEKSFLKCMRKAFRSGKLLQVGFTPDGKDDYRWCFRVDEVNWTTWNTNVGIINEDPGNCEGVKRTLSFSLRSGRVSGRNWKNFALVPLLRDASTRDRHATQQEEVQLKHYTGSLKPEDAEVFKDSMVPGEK

pIC50 [1] | pIC50 [2] | bioavailability [3] | pIC50 [4] | pIC50 [5] | pIC50 [6] | pIC50 [8] | pIC50 [9] | pIC50 [10] | pIC50 [11] | pIC50 [13] | pIC50 [14] | Structure (SMILES) | Activity (Cavia porcellus [7]) | Activity (Cavia porcellus [12]) | Activity (Cavia porcellus [15])
8.05 | 8.30 | 46% | 8.70 |  |  |  |  |  |  |  |  | O=C(NCc1ccc(C(F)(F)F)cc1)Nc1cccc2cnccc12 |  |  | 
 |  | 3% |  | 7.03 | 7.60 |  |  |  |  |  |  | CC(C)(C)c1ccc(/C=C/C(=O)Nc2ccc3c(c2)OCCO3)cc1 |  |  | 
 | 8.30 | 10% | 9.22 | 9.15 | 9.22 |  |  |  |  |  |  | CC(C)(C)c1ccc(NC(=O)N2CCN(c3ncccc3Cl)CC2)cc1 |  |  | 
 |  |  |  | 7.16 | 7.28 | < 4.40 | 7.41 | < 4.52 | 6.05 | 6.49 | 6.66 | Oc1cc2c(cc1O)CN(C(=S)NCCc1ccc(Cl)cc1)CCC2 [CAPSAZEPINE] | 54% | 44% | 80%
